Reference: patent publication US9034846B2, “Use of cyclodextrin for treatment and prevention of bronchial inflammatory diseases” (UNIVERSITE DE LIEGE, priority 2004, dated 2015)

Experiments:
OVA exposed mice [1] = assay: Bronchoalveolar lavage differential cell counts, OVA mouse model of asthma; format: in vivo; conditions: for Eosinophils (%) in BAL / Epithelial cells (%) in BAL / Lymphocytes (%) in BAL / Macrophages (%) in BAL / Neutrophils (%) in BAL / Total cells (10^4/ml) in BAL: Table 2
Description: (§1) In order to study modulation of airway inflammation, males BALB/c mice of 6 to 8 weeks old were sensitized by intraperitoneal injection of 10 μg ovalbumin (OVA) (Sigma Aldrich, Schnelldorf, Germany) emulsified in aluminum hydroxyde (AlumInject; Perbio, Erembodegem, Belgium) on days 1 and 8. Mice were subsequently exposed to allergens by daily inhalation of an aerosol of OVA 1%, for 30 minutes, generated by ultrasonic nebulizer (Devilbiss 2000), from day 21 to 27. Mice were subjected to inhalation of β-CD, HP-β-CD HP 1, 7.5, 50 mM and HP-β-CD 50 mM 30 minutes before OVA inhalation. Mice were sacrificed performed on day 28 as previously reported by Cataldo and al in Am. J. Pathol 2002; 161(2):491-498.
Immediately after assessment of airway responsiveness, and 24 hours after the last allergen exposure.
Mices were sacrificed and a bronchoalveolar lavage was performed using 4×1 ml PBS-EDTA 0.05 mM (Calbiochem, Darmstadt, Germany) as previously described by Cataldo D D, Tournoy K G, Vermaelen K et al. in Am J Pathol 2002; 161(2):491-498. Cells were recovered by gentle manual aspiration. After centrifugation of bronchoalveolar fluid (BALF) (1200 rpm for 10 minutes, at 4° C.), the supernatant was frozen at −80° C. for protein assessment and the cell pellet was resuspended in 1 ml PBS-EDTA 0.05 mM. The differential cell counts were performed on cytocentrifuged preparations (Cytospin) after staining with Diff-Quick (Dade, Belgium).

OVA exposed mice [2] = assay: Bronchial responsiveness to methacholine (Penh, barometric plethysmograph); format: in vivo, mouse
Description: as §1, with “Mice were subjected to inhalation of β-CD, HP-β-CD HP 1, 7.5, 50 mM and HP-β-CD 50 mM 30 minutes before OVA inhalation.” left out
Twenty-four hours after the last allergen exposure, the bronchial hyper responsiveness was determined by measuring the Penh (Enhanced Pause) using a barometric plethysmograph (Emka technologies, Paris) as proposed by Hamelmann, E., et al., Am. J. Respir. Crit. Care Med. 156 (1997) 766-775). The Penh was measured at baseline and […] after the inhalation of increasing doses (25, 50, 75 and 100 mM) of methacholine (Mch).

IL-13 = IL-13 ELISA in BAL and lung protein extracts, OVA mouse model; format: in vivo
Description: as §1
The left lung was crushed using a Mikro-Dismembrator (Braun Biotech International, Gmbh Melsungen, Germany). For proteins extraction, the crushed lung tissue was incubated overnight at 4° C. in a solution containing 2M urea, 1M NaCl and 50 mM Tris (pH 7.5) and subsequently centrifuged 15 minutes at 16.000×g. The supernatant was stored at −80° C.
Eotaxin and IL-13 levels were assessed using commercial ELISAs (R&D systems, Abingdon, UK). Eotaxin was measured by incubation in a wheel coated with a primary antibody specifically dedicated to the recognition of the protein and after rinsing, a second antibody against eotaxin, coupled with horse radish peroxydase was used to quantify the amounts of eotaxin in the solution
IL-13 was measured by incubation in a wheel coated with a primary antibody specifically dedicated to the recognition of the protein and after rinsing, a second antibody against IL-13, coupled with horse radish peroxydase was used to quantify the amounts of […] in the solution.

[3] = tested on: LPS-induced peribronchial inflammation; assay: Peribronchial inflammation score, LPS-induced inflammation model; format: in vivo, mouse; conditions: aerosolized 15 mM, vs placebo, FIG. 14
Description: In lipopolysaccharide (LPS)-induced inflammation model, mice were exposed to 3 μg LPS diluted in 100 μl of PBS or PBS (phosphate buffer saline) only administered by direct tracheal instillations at day 1 and 5 of the protocol. Mice were daily exposed either to aerosolized hydroxypropyl-beta-cyclodextrin (15 mM) or PBS for 30 min from day 0 to 5 (6 hours after LPS or sham exposure at days 1 and 5). Mice were sacrificed at day 6.
After sacrifice, thorax was opened and the right lungs were excised and snap frozen in liquid nitrogen for protein extraction. The left lung was insufflated at constant pressure with 4% paraformaldehyde and embedded in paraffin for further histological analysis. A peribronchial inflammation score was applied on each hematoxylin-eosin stained slide as previously reported (Cataldo et al Am J Pathol 2002). A value from 0 to 2 was adjudged to each bronchus. Score of 0 corresponded to bronchi without inflammation; score 1 to occasional mononuclear cells observed around bronchi, and score 2 to 1 to 5 layer(s) of inflammatory cells around bronchi. Six bronchi per mice were counted and statistical analysis was performed by using GraphPad Program. […] ELISA for CXCL-1 on lung protein extracts were assessed using antibodies from R&D Systems and the R&D Duoset® Elisa Development kit (R&D Systems, Minneapolis, Minn., USA).

## hydroxypropyl-βcyclodextrin [HP-β-CD]
OVA exposed mice [1]; 1, 7.5 and 50 mM inhalation, FIG. 1
  BAL eosinophils: dose dependent decrease
OVA exposed mice [1]; 1 mM
  Eosinophils (%) in BAL: 34.2 ± 7.705 %
  Epithelial cells (%) in BAL: 25.08 ± 3.413%
  Lymphocytes (%) in BAL: 0.48 ± 0.1869%
  Macrophages (%) in BAL: 39.75 ± 5.427%
  Neutrophils (%) in BAL: 0.36 ± 0.1563%
  Total cells (10^4/ml) in BAL: 74.92 ± 14.396 10^4/ml
OVA exposed mice [1]; 10 mM
  Eosinophils (%) in BAL: 27.24 ± 4.98 %
  Epithelial cells (%) in BAL: 34.44 ± 3.723%
  Lymphocytes (%) in BAL: 0.21 ± 0.08571%
  Macrophages (%) in BAL: 37.114 ± 3.878%
  Neutrophils (%) in BAL: 0.83 ± 0.5838%
  Total cells (10^4/ml) in BAL: 114.43 ± 33.245 10^4/ml
OVA exposed mice [1]; 50 mM
  Eosinophils (%) in BAL: 12.18 ± 4.366 %
  Epithelial cells (%) in BAL: 45.04 ± 5.534%
  Lymphocytes (%) in BAL: 0.12 ± 0.12%
  Macrophages (%) in BAL: 41.86 ± 9.043%
  Neutrophils (%) in BAL: 0.72 ± 0.3992%
  Total cells (10^4/ml) in BAL: 37.33 ± 10.683 10^4/ml
OVA exposed mice [1]; after allergen exposure, inhalation at 50 mM, FIG. 1
  BAL eosinophil counts: significantly decreased
OVA exposed mice [1]; after inhalation, compared to placebo
  Other inflammatory cells in the BAL: not present in different amounts
OVA exposed mice [2]; 50 mM
  area under the methacholine dose-response curve (A.U.C): significant decrease
OVA exposed mice [2]; 50 mM inhalation, FIG. 4
  methacholine-induced Penh increase: reduced
IL-13; 50 mM, FIG. 11
  levels of IL-13 in whole lung protein extracts: significantly decreased
IL-13; FIG. 7b
  IL-13 levels in BAL: decreased
[3]
  Peribronchial inflammation: significantly lower
